Experiments:
[1] = target: T1, vanilloid receptor 1 (VR1/TRPV1 receptor) (Homo sapiens, UniProt Q8NER1); assay: FLIPR Ca2+ influx assay, capsaicin stimulus, CHO K1 cells transfected with human VR1 gene; assay type: cell-based, human being; conditions: for inhibition at 5 µM: CHO-K1, @ 5 μM, read-out: inhibition (as a percentage), (f) Ki (human being) Cap column; for (f) Ki (human being) [nM] Cap / Ki: functional, NE=no effect; for Ki: read-out: (f) Ki (human being) [nM] Cap
T1 construct: expressed in transfected cells; host or cells: CHO K1 cells (ECACC), stably transfected
T1 sequence (Q8NER1 whole entry): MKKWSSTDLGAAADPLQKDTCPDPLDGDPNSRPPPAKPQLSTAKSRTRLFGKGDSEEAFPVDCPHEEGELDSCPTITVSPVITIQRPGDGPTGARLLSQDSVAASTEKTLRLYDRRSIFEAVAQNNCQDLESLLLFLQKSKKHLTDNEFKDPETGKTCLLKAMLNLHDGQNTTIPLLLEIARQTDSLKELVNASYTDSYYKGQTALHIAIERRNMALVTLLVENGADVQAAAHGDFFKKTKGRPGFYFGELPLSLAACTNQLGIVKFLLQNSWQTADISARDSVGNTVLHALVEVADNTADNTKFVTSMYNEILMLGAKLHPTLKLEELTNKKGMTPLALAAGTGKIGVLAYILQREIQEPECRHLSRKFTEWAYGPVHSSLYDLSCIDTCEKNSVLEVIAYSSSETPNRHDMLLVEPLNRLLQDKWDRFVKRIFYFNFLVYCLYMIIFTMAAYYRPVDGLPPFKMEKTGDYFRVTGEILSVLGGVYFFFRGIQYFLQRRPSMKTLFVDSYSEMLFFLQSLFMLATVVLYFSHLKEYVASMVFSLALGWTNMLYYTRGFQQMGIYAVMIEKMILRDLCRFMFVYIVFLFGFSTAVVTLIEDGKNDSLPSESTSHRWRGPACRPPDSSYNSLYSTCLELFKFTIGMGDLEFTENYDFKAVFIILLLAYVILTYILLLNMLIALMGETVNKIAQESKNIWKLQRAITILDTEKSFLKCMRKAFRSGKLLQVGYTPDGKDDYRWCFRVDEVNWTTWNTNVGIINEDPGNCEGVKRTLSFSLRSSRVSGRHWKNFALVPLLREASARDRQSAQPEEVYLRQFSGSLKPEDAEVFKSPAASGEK
Method: Furthermore, preference may be given to compounds according to the invention of general formula (I) that cause a 50 percent displacement of capsaicin, which is present at a concentration of 100 nM, in a FLIPR assay with CHO K1 cells which were transfected with the human VR1 gene at a concentration of less than 2,000 nM, preferably less than 1,000 nM, particularly preferably less than 300 nM, most particularly preferably less than 100 nM, even more preferably less than 75 nM, additionally preferably less than 50 nM, most preferably less than 10 nM.
In the process, the Ca^2+ influx is quantified in the FLIPR assay with the aid of a Ca^2+-sensitive dye (type Fluo-4, Molecular Probes Europe BV, Leiden, the Netherlands) in a fluorescent imaging plate reader (FLIPR, Molecular Devices, Sunnyvale, USA), as described hereinafter.
(§1) The agonistic or antagonistic effect of the substances to be tested on the vanilloid receptor 1 (VR1) can also be determined using the following assay. In this assay, the influx of Ca^2+ through the channel is quantified with the aid of a Ca^2+-sensitive dye (type Fluo-4, Molecular Probes Europe BV, Leiden, the Netherlands) in a fluorescent imaging plate reader (FLIPR, Molecular Devices, Sunnyvale, USA).
(§2) Chinese hamster ovary cells (CHO K1 cells, European Collection of Cell Cultures (ECACC) United Kingdom) are stably transfected with the VR1 gene. For functional testing, these cells are plated out on poly-D-lysine-coated black 96-well plates having a clear base (BD Biosciences, Heidelberg, Germany) at a density of 25,000 cells/well. The cells are incubated overnight at 37° C. and 5% CO2 in a culture medium (Ham's F12 nutrient mixture, 10% by volume of FCS (foetal calf serum), 18 μg/ml of L-proline). The next day the cells are incubated with Fluo-4 (Fluo-4 2 μM, 0.01% by volume of Pluronic F127, Molecular Probes in HBSS (Hank's buffered saline solution), Gibco Invitrogen GmbH, Karlsruhe, Germany) for 30 minutes at 37° C. Subsequently, the plates are washed three times with HBSS buffer and after further incubation for 15 minutes at RT used for Ca^2+ measurement in a FLIPR assay. The Ca^2+-dependent fluorescence is measured before and after the addition of the substances to be tested (λex wavelength=488 nm, λem=540 nm). Quantification is carried out by measuring the highest fluorescence intensity (FC, fluorescence counts) over time.
The FLIPR protocol consists of 2 substance additions. First the compounds to be tested (10 μM) are pipetted onto the cells and the Ca^2+ influx is compared with the control (capsaicin 10 μM) (% activation based on the Ca^2+ signal after the addition of 10 μM of capsaicin). After 5 minutes' incubation, 100 nM of capsaicin are applied and the Ca^2+ influx is also determined.
Desensitising agonists and antagonists led to suppression of the Ca^2+ influx. The % inhibition is calculated compared to the maximum achievable inhibition with 10 μM of capsaicin.
Starting from the percentage displacement caused by different concentrations of the compounds to be tested of general formula I, IC50 inhibitory concentrations which cause a 50-percent displacement of capsaicin were calculated. K, values for the test substances were obtained by conversion by means of the Cheng-Prusoff equation (Cheng, Prusoff; Biochem. Pharmacol. 22, 3099-3108, 1973).

[2] = target: T1, vanilloid receptor 1 (VR1/TRPV1 receptor); assay: Functional VR1 assay, heat stimulus 45° C.; assay type: cell-based, human being; conditions: human VR1, heat stimulus 45° C.
Description: as §1
as §2, with “Subsequently, the plates are washed three times with HBSS buffer and after further incubation for 15 minutes at RT used for Ca^2+ measurement in a FLIPR assay.” left out

[3] = target: T2, vanilloid receptor 1 (VR1/TRPV1 receptor) (Mus musculus, UniProt Q704Y3); assay: FLIPR Ca2+ influx assay, capsaicin stimulus, mouse VR1; assay type: cell-based; conditions: functional, read-out: (f) Ki (mouse) [nM] Cap
T2 construct: expressed in transfected cells; host or cells: CHO K1 cells stably transfected (inferred from method II)
T2 sequence (Q704Y3 whole entry): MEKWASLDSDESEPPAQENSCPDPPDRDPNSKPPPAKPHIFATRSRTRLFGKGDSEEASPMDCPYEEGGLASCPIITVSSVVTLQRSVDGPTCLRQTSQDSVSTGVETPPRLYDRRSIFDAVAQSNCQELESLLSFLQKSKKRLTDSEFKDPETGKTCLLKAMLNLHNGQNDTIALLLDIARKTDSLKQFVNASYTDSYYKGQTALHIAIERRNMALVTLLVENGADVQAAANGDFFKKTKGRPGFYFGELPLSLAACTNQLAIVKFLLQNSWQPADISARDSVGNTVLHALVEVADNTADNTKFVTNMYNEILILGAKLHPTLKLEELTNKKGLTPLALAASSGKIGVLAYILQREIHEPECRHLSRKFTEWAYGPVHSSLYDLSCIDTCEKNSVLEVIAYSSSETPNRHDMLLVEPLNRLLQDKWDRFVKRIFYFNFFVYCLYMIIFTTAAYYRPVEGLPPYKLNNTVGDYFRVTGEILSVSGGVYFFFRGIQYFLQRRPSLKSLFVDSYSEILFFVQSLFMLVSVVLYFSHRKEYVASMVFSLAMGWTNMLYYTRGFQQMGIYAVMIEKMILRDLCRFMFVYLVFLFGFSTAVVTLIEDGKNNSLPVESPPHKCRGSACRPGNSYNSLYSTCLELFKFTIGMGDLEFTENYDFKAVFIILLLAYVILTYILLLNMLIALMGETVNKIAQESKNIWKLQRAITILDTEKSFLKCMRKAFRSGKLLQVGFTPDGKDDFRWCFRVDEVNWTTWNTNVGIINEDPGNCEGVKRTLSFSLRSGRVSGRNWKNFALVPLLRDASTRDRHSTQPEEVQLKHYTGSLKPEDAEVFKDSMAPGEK
Description: as §1
Chinese hamster ovary cells (CHO K1 cells, European Collection of Cell Cultures (ECACC) United Kingdom) are stably transfected with the VR1 gene. For functional testing, these cells are plated out on poly-D-lysine-coated black 96-well plates having a clear base (BD Biosciences, Heidelberg, Germany) at a density of 25,000 cells/well. […] The Ca^2+-dependent fluorescence is measured before and after the addition of the substances to be tested (λex wavelength=488 nm, λem=540 nm). Quantification is carried out by measuring the highest fluorescence intensity (FC, fluorescence counts) over time.
The FLIPR protocol consists of 2 substance additions. […] After 5 minutes' incubation, 100 nM of capsaicin are applied and the Ca^2+ influx is also determined. […]
Starting from the percentage displacement caused by different concentrations of the compounds to be tested of general formula I, IC50 inhibitory concentrations which cause a 50-percent displacement of capsaicin were calculated. […]

CC(C)(C)c1ccc2c(c1)CC[C@H]2NC(=O)NCc1cc(C(F)(F)F)nn1-c1cccc(Cl)c1 [Example 2, (R)-1-(5-tert-butyl-2,3-dihydro-1H-inden-1-yl)-3-((1-(3-chlorophenyl)-3-(trifluoromethyl)-1H-pyrazol-5-yl)methyl)urea]
inhibition at 5 µM [1]: 33%

CC(C)(C)c1ccc2c(c1)CC[C@@H]2NC(=O)NCc1cc(C(F)(F)F)nn1-c1cccc(Cl)c1 [Example 3, (S)-1-(5-tert-butyl-2,3-dihydro-1H-inden-1-yl)-3-((1-(3-chlorophenyl)-3-(trifluoromethyl)-1H-pyrazol-5-yl)methyl)urea]
(f) Ki (human being) [nM] Cap [1]: Ne

CC(C)(C)c1ccc2c(c1)C[C@H](NC(=O)NCc1cc(C(C)(C)C)nn1-c1cccc(Cl)c1)C2 [Example 4, (R)-1-((3-tert-butyl-1-(3-chlorophenyl)-1H-pyrazol-5-yl)methyl)-3-(5-tert-butyl-2,3-dihydro-1H-inden-2-yl)ure]
(f) Ki (human being) [nM] Cap [1]: Ne

Cn1ncc2c1CCCC2NC(=O)NCc1cc(C(F)(F)F)nn1-c1cccc(Cl)c1 (stereo not drawn) [Example 7, 1-((1-(3-chlorophenyl)-3-(trifluoromethyl)-1H-pyrazol-5-yl)methyl)-3-(1-methyl-4,5,6,7-tetrahydro-1H-indazol-4-yl)urea]
(f) Ki (human being) [nM] Cap [1]: Ne

CC(C(=O)NCc1cc(C(F)(F)F)nn1-c1cccc(Cl)c1)C1CCCc2ccc(O)cc21 (stereo not drawn) [Example 12, N-((1-(3-chlorophenyl)-3-(trifluoromethyl)-1H-pyrazol-5-yl)methyl)-2-(7-hydroxy-1,2,3,4-tetrahydronaphthalen-1-yl)propanamide]
inhibition at 2.5 µM ([2]; @ 2.5 μM, read-out: inhibition (as a percentage), IC50 (human being) 45° C. column): 30% | Ki [1]: 49.2 nM

O=C(NCc1cc(C(F)(F)F)nn1-c1cccc(Cl)c1)NC1CCCc2ccc(O)cc21 (stereo not drawn) [Example 13, 1-((1-(3-chlorophenyl)-3-(trifluoromethyl)-1H-pyrazol-5-yl)methyl)-3-(7-hydroxy-1,2,3,4-tetrahydronaphthalen-1-yl)urea]
IC50 ([2]; read-out: IC50 (human being) [nM], 45° C.): 1860 nM | Ki [1]: 16.1 nM

CC(C)(C)c1cc(CNC(=O)NC2CCCc3ccc(O)cc32)n(-c2cccc(Cl)c2)n1 (stereo not drawn) [Example 14, 1-((3-tert-butyl-1-(3-chlorophenyl)-1H-pyrazol-5-yl)methyl)-3-(7-hydroxy-1,2,3,4-tetrahydronaphthalen-1-yl)urea]
Ki [1]: 7.7 nM | Ki [3]: 132 nM

CC(C(=O)NCc1cc(C(F)(F)F)nn1-c1ccc(F)c(Cl)c1)C1CCCc2ccc(O)cc21 (stereo not drawn) [Example 15, N-((1-(3-chloro-4-fluorophenyl)-3-(trifluoromethyl)-1H-pyrazol-5-yl)methyl)-2-(7-hydroxy-1,2,3,4-tetrahydronaphthalen-1-yl)propanamide]
Ki [1]: 29.5 nM

O=C(NCc1cc(C(F)(F)F)nn1-c1cccc(Cl)c1)NC1CCCc2cnccc21 (stereo not drawn) [Example 19, 1-((1-(3-chlorophenyl)-3-(trifluoromethyl)-1H-pyrazol-5-yl)methyl)-3-(5,6,7,8-tetrahydroisoquinolin-5-yl)urea]
inhibition at 5 µM [1]: 38%

CC(C)(C)c1cc(CNC(=O)NC2CCCc3cnccc32)n(-c2cccc(Cl)c2)n1 (stereo not drawn) [Example 20, 1-((3-tert-butyl-1-(3-chlorophenyl)-1H-pyrazol-5-yl)methyl)-3-(5,6,7,8-tetrahydroisoquinolin-5-yl)urea]
Ki [1]: 73.6 nM

N-((1-(3-chlorophenyl)-3-(trifluoromethyl)-1H-pyrazol-5-yl)methyl)-2-(7-hydroxy-1,2,3,4-tetrahydronaphthalen-1-yl)propanamide [Example 10]
inhibition (as a percentage), (f) Ki (human being) Cap column ([1]; @ 1 μM): 14% @ 1 μM | inhibition (as a percentage), (f) Ki (human being) Cap column ([1]; @ 5 μM): 34% @ 5 μM

Source: patent US20120115893A1, “Substituted Bicyclic Carboxamide and Urea Compounds as Vanilloid Receptor Ligands” (Gruenenthal GmbH, priority 2010, published 2012)
